Measurements: patent publication US10414811B2, “Protease-resistant lipidated GLP-1 analogs” (MEDIMMUNE LIMITED, priority 2015, dated 2019)
Like-named read-outs stand apart in the source and are kept apart here. Numbered stars: 1 amine (or outer) side, 2 acyl side, 3 side chain; on linkers, the order of the positions; unused ones are H or OH. Square brackets hold non-standard residues; d marks the D form. Side chains are listed from the residue outwards. Peptide text beside a SMILES is read from it. * marks the point of attachment. C18 diacid = O=C(O)CCCCCCCCCCCCCCCCC(=O)*; γGlu = O=C(O)[C@H](CCC(=O)[*:2])N[*:1]; αMeF = C[C@](N)(Cc1ccccc1)C(=O)O; αMeK = C[C@](N)(CCCCN)C(=O)O; αMeS = C[C@](N)(CO)C(=O)O; AEEA = NCCOCCOCC(=O)O; Aib = CC(C)(N)C(=O)O

Columns and labels:
[1] = biological target: T1, Neprilysin (Homo sapiens, UniProt P08473); experiment: Proteolytic resistance to neprilysin (% remaining peptide, RP-HPLC AUC); type: in vitro ADME; conditions: 37° C., pH 8.3; for remaining at 0.5 h / remaining at 1 h / remaining at 2 h / remaining at 4 h / remaining at 8 h / remaining at 24 h: recombinant neprilysin; for remaining at 0.5 h: t = 30 min; for remaining at 1 h: t = 1 hr; for remaining at 2 h: t = 2 hr; for remaining at 4 h: t = 4 hr; for remaining at 8 h: t = 8 hr; for remaining at 24 h: t = 24 hr, read-out: Percentage remaining peptide (AUC at specified time-point by RP-HPLC) upon incubation with neprilysin, t = 24 hr
T1 construct: purchased R&D Systems 1182-ZNC-010
Experimental: Ratio enzyme (units):peptide (μmoles)˜1:33. […] Ratio enzyme (units):peptide (μmoles)˜1:2.5.
15 μL aliquots (˜15 μg initial peptide) of the peptide-enzyme mixture were periodically withdrawn (t=0, 30 mins, 1 hr, 2 hr, 4 hr, 8 hr, 24 hr) and quenched immediately by addition to an equal volume (15 μL) of 5% TFA (v/v) in 1:1 water/acetonitrile to arrest proteolytic activity. 20 μL aliquots (˜10 μg initial peptide) were analyzed by LC/MS and/or analytical RP-HPLC as follows: LC/MS method: Agilent Polaris C8-A column (4.6×100 mm, 3 micron) eluted with a linear binary gradient of 10-90% MeCN (0.1% TFA v/v) in water (0.1% TFA v/v) over 30 mins at 1.5 mL min-1 at ambient temperature with detection by both UV absorption at 210 nm and ionization using a Waters 3100 mass detector (ESI+ mode). Peptide fragments deriving from enzymatic hydrolysis were identified by molecular weight, allowing location of the site of cleavage. Analytical RP-HPLC method: Agilent Polaris C8-A column (4.6×100 mm, 3 micron) eluted with a linear binary gradient of 10-90% MeCN (0.1% TFA v/v) in water (0.1% TFA v/v) over either 10 or 15 mins at 1.5 mL min^−1 at 40° C. with detection by UV absorption at 210 nm. Manual integration (AUC) allowed estimation of remaining intact peptide over the time course of the experiment.
25 μL aliquots (˜6 μg initial peptide) were analyzed by LC/MS and/or analytical RP-HPLC as follows: LC/MS method: Agilent Polaris C8-A column (4.6×100 mm, 3 micron) eluted with a linear binary gradient of 10-90% MeCN (0.1% TFA v/v) in water (0.1% TFA v/v) over 30 mins at 1.5 mL min^−1 at ambient temperature with detection by both UV absorption at 210 nm and ionization using a Waters 3100 mass detector (ESP mode). Peptide fragments deriving from enzymatic hydrolysis were identified by molecular weight, allowing location of the site of cleavage. Analytical RP-HPLC method: Agilent Polaris C8-A column (4.6×100 mm, 3 micron) eluted with a linear binary gradient of 10-90% MeCN (0.1% TFA v/v) in water (0.1% TFA v/v) over either 10 or 15 mins at 1.5 mL min^−1 at 40° C. with detection by UV absorption at 210 nm. Manual integration (AUC) allowed estimation of remaining intact peptide over the time course of the experiment.

[2] = biological target: T2, pepsin (Sus scrofa, UniProt P00791); experiment: Proteolytic resistance to pepsin (% remaining intact peptide, RP-HPLC AUC); type: in vitro ADME; conditions: pig, porcine pepsin, 37° C., pH 2.0, read-out: Percentage remaining intact peptide (AUC by RP-HPLC) upon incubation with pepsin; for remaining at 0.5 h: t = 30 min; for remaining at 1 h: t = 1 hr; for remaining at 2 h: t = 2 hr; for remaining at 4 h: t = 4 hr; for remaining at 8 h: t = 8 hr; for remaining at 24 h: t = 24 hr
T2 construct: purchased Sigma P7012
Experimental: Lyophilized porcine […] pepsin (Sigma: P7012) was reconstituted to afford a solution of 200 μg/mL (˜500 units/mL) in assay buffer (0.1 M HCl, pH 2.0) to give the enzyme stock solution. […] Ratio enzyme (units):peptide (μmoles)˜1:6. […] Ratio enzyme (units):peptide (μmoles)˜2:1.
Lyophilized porcine […] pepsin (Sigma: P7012) was reconstituted to 200 μg/mL (˜500 units/mL) in assay buffer (1.0 M HCl, pH 2.0) to give the enzyme stock solution.

[3] = biological target: T3, trypsin (Sus scrofa, UniProt P00761); experiment: Proteolytic resistance to trypsin (% remaining intact peptide, RP-HPLC AUC); type: in vitro ADME; conditions: pig, porcine pancreatic trypsin, 37° C., pH 7.8, read-out: Percentage remaining intact peptide (AUC by RP-HPLC) upon incubation with trypsin; for remaining at 0.5 h: t = 30 min; for remaining at 1 h: t = 1 hr; for remaining at 2 h: t = 2 hr; for remaining at 4 h: t = 4 hr; for remaining at 8 h: t = 8 hr; for remaining at 24 h: t = 24 hr
T3 construct: purchased Sigma T7409
Source text: Ratio enzyme (units):peptide (μmoles)˜1:11. […] Ratio enzyme (units):peptide (μmoles)˜1.2:1.

[4] = biological target: T4, human GLP-1 receptor (GLP-1R) (Homo sapiens, UniProt P43220); experiment: cAMP assay, human GLP-1R cells; type: cell-based
T4 construct: expressed in transfected cells
In short: (§1)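 Peptide-stimulated cAMP measured by two-step HTRF after a 30 min room-temperature incubation with receptor-expressing cells (hGLP-1R, hGIPR at 1×10^5 cells/ml; hGCGR at 2×10^5 cells/ml). Duplicate dilutions; EC50 from 4-parameter logistic fit of % Delta F.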

[5] = biological target: T5, human glucagon receptor (GCGR) (Homo sapiens, UniProt P47871); experiment: cAMP assay, human GCGR cells; type: cell-based; conditions: cAMP assay
T5 construct: expressed in transfected cells
In short: as §1

[6] = biological target: T6, human glucose-dependent insulinotropic peptide receptor (GIPR) (Homo sapiens, UniProt P48546); experiment: cAMP assay, human GIPR cells; type: cell-based; conditions: cAMP assay
T6 construct: expressed in transfected cells
T6 sequence (P48546 22-466): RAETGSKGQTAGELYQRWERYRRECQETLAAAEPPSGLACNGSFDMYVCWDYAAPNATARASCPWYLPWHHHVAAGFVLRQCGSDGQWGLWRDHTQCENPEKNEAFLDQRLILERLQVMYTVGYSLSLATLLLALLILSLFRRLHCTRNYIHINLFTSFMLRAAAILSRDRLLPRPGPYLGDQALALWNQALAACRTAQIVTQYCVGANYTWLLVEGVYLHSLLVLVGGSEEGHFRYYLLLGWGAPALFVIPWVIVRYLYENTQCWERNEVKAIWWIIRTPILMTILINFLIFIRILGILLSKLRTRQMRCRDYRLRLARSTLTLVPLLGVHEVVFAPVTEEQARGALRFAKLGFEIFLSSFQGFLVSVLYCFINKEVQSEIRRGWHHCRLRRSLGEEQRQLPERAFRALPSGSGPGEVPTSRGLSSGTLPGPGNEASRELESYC
In short: as §1

[7] = biological target: T7, GLP-1R (INS1e assay) (Rattus norvegicus, UniProt P32301); experiment: INS1e assay, cAMP activity at GLP-1R; type: cell-based; conditions: mono-lipidated peptides
T7 construct: endogenous in cells; host or cells: INS-1E cells
T7 sequence (P32301 22-463): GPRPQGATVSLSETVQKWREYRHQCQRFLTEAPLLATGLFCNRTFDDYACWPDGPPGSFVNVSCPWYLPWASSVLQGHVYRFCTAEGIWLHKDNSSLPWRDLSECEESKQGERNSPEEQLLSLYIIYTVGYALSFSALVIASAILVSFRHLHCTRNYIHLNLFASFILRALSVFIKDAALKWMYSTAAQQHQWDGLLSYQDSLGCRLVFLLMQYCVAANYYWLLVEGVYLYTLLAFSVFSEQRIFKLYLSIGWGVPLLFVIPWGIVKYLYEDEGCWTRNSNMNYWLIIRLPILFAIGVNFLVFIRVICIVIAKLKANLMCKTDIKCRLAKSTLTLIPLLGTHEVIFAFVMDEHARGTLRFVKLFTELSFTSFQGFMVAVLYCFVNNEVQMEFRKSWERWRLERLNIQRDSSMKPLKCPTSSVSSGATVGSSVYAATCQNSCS
In short: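 It pairs cAMP-d2 acceptor with anti-cAMP cryptate donor, both prepared 1/20 in conjugate/lysis buffer, applied as a two-step protocol.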

[8] = cAMP assay, first determination (n1), read-out: Primary assay EC50 GLP-1R n1
[9] = cAMP assay, second determination (n2), read-out: Primary assay EC50 GLP-1R n2
[10] = mean of n1 and n2, read-out: Mean pM GLP-1R
[11] = first determination (n1), read-out: Primary assay EC50 Gluc-R (n1)
[12] = second determination (n2), read-out: Primary assay EC50 Gluc-R (n2)
[13] = first determination (n1), read-out: Primary assay EC50 GIP-R (n1)
[14] = second determination (n2), read-out: Primary assay EC50 GIP-R (n2)
[15] = mean of n1 and n2, read-out: INS1e assay EC50 Mean pM GLP-1R
[16] = replicate n1, read-out: INS1e assay EC50 GLP-1R n1
[17] = replicate n2, read-out: INS1e assay EC50 GLP-1R n2

T2 sequence (P00791 60-385): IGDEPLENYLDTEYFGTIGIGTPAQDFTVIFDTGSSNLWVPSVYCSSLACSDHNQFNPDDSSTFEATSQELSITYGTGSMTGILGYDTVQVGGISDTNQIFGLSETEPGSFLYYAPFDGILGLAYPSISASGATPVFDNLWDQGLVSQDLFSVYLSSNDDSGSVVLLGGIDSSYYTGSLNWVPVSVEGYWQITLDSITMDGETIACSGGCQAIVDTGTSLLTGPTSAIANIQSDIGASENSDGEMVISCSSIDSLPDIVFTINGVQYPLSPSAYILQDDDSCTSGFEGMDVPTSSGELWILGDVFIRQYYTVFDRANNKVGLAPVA
T5 sequence (P47871 26-477): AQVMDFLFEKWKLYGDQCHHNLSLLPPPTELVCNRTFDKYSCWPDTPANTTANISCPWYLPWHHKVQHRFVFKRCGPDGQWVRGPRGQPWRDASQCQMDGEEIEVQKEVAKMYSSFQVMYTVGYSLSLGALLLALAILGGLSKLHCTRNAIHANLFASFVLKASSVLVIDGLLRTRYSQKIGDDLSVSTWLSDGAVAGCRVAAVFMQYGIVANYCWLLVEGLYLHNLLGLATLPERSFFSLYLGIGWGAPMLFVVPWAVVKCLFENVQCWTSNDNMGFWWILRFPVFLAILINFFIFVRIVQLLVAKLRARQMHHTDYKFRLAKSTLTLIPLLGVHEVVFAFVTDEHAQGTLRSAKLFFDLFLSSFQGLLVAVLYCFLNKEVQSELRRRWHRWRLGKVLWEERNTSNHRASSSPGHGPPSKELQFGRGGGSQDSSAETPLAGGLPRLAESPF
T4 sequence (P43220 24-463): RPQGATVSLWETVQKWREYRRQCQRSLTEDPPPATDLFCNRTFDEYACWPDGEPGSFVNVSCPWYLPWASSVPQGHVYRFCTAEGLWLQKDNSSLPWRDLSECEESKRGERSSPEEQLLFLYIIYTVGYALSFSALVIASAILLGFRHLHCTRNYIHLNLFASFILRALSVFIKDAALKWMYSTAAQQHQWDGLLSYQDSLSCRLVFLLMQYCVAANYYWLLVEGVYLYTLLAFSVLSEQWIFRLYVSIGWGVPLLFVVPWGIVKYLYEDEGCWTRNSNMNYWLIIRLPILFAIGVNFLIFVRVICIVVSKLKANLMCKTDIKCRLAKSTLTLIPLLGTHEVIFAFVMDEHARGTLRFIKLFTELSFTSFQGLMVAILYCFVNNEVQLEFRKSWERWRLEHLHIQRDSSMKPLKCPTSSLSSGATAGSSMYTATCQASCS
T1 sequence (P08473 whole entry): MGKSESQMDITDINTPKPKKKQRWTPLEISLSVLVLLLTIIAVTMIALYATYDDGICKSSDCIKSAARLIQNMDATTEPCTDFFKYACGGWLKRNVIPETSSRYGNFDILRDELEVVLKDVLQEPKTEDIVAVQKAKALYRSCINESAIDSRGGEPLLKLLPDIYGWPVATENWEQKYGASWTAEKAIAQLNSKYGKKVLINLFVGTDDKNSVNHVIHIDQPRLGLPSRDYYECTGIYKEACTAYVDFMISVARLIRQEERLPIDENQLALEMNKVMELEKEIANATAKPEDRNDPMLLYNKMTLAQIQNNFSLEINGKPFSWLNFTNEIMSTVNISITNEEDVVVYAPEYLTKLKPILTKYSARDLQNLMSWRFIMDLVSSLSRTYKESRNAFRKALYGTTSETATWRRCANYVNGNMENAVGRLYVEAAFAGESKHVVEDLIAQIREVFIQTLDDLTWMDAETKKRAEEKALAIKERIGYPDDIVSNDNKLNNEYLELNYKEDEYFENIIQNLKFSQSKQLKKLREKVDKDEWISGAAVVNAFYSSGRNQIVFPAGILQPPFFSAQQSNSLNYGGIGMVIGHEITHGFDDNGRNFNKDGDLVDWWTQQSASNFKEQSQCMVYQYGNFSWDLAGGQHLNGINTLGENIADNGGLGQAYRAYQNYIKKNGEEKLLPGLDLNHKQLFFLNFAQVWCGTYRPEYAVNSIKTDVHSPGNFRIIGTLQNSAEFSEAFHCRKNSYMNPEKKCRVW
T3 sequence (P00761 9-231): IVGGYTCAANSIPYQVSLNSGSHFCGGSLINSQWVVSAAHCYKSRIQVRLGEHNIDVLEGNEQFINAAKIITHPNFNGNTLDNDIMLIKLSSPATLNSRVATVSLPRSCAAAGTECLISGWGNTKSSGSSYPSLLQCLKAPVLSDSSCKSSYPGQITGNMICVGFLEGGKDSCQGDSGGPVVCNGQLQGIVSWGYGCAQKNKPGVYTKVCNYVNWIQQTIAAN

| Structure (SMILES) | remaining at 0.5 h [1] | remaining at 1 h [1] | remaining at 2 h [1] | remaining at 4 h [1] | remaining at 8 h [1] | remaining at 24 h [1] | Percentage remaining peptide (AUC at specified time-point by RP-HPLC) upon incubation with neprilysin, t = 0 [1] | remaining at 0.5 h [2] | remaining at 1 h [2] | remaining at 2 h [2] | remaining at 4 h [2] | remaining at 8 h [2] | remaining at 24 h [2] | remaining at 0.5 h [3] | remaining at 1 h [3] | remaining at 2 h [3] | remaining at 4 h [3] | remaining at 8 h [3] | remaining at 24 h [3] | EC50 [4, 8] | further results |
| --- | --- | --- | --- | --- | --- | --- | --- | --- | --- | --- | --- | --- | --- | --- | --- | --- | --- | --- | --- | --- | --- |
| CC[C@H](C)[C@H](NC(=O)[C@H](Cc1ccccc1)NC(=O)[C@H](CCC(=O)O)NC(=O)[C@](C)(CCCCN)NC(=O)[C@H](C)NC(=O)[C@H](C)NC(=O)[C@H](CCC(=O)O)NC(=O)CNC(=O)[C@H](CCC(=O)O)NC(=O)[C@H](CC(C)C)NC(=O)[C@](C)(Cc1ccccc1)NC(=O)[C@H](CO)NC(=O)[C@](C)(CO)NC(=O)[C@@H](NC(=O)[C@H](CC(=O)O)NC(=O)[C@H](CO)NC(=O)[C@@H](NC(=O)[C@](C)(Cc1ccccc1)NC(=O)[C@H](CO)NC(=O)CNC(=O)[C@H](CCC(=O)O)NC(=O)C(C)(C)NC(=O)[C@@H](N)Cc1c[nH]cn1)[C@@H](C)O)C(C)C)C(=O)N[C@@H](CCCCNC(=O)COCCOCCNC(=O)COCCOCCNC(=O)CC[C@H](NC(=O)CCCCCCCCCCCCCCCCC(=O)O)C(=O)O)C(=O)N[C@@H](Cc1c[nH]c2ccccc12)C(=O)N[C@H](C(=O)N[C@H](C(=O)N[C@@H](CCC(=O)O)C(=O)NCC(=O)NCC(N)=O)C(C)C)C(C)C [compound 68] (H-H[Aib]EGS[αMeF]TSDV[αMeS]S[αMeF]LEGEAA[αMeK]EFIK([AEEA-AEEA-γGlu-C18 diacid])WVVEGG-NH2; N-terminus assumed) | 97.4% | 95.4% | 96.4% | 95.4% | 93.9% | 94.9% | 100% | 96.5% | 94.7% | 92.2% | 88.2% | 86% | 85.3% | 92.3% | 86.2% | 76.8% | 48.6% | 39.8% | 27.4% | 22.1 pM | EC50 [4, 9]: 15.5 pM; EC50 [4, 10]: 18.8 pM; EC50 [5, 11]: ≥ 25 nM; EC50 [5, 12]: ≥ 25 nM; EC50 [6, 13]: ≥ 25 nM; EC50 [6, 14]: ≥ 25 nM; EC50 [7, 15]: 3780 pM; EC50 [7, 16]: 2690 pM; EC50 [7, 17]: 4870 pM |
| CC[C@H](C)[C@H](NC(=O)[C@H](Cc1ccccc1)NC(=O)[C@H](CCC(=O)O)NC(=O)[C@H](CCCCNC(=O)COCCOCCNC(=O)COCCOCCNC(=O)CC[C@H](NC(=O)CCCCCCCCCCCCCCCCC(=O)O)C(=O)O)NC(=O)[C@H](C)NC(=O)[C@H](C)NC(=O)[C@H](CCC(=O)O)NC(=O)CNC(=O)[C@H](CCC(=O)O)NC(=O)[C@H](CC(C)C)NC(=O)[C@](C)(Cc1ccccc1)NC(=O)[C@H](CO)NC(=O)[C@](C)(CO)NC(=O)[C@@H](NC(=O)[C@H](CC(=O)O)NC(=O)[C@H](CO)NC(=O)[C@@H](NC(=O)[C@](C)(Cc1ccccc1)NC(=O)[C@H](CO)NC(=O)CNC(=O)[C@H](CCC(=O)O)NC(=O)C(C)(C)NC(=O)[C@@H](N)Cc1c[nH]cn1)[C@@H](C)O)C(C)C)C(=O)N[C@@H](C)C(=O)N[C@@](C)(Cc1ccccc1)C(=O)N[C@H](C(=O)N[C@H](C(=O)N[C@@](C)(CCCCN)C(=O)NCC(=O)NCC(N)=O)C(C)C)C(C)C [compound 48] | 96.8% | 96.5% | 93% | 93.9% | 89.5% | 90% | 100% | 89.1% | 80.8% | 71.4% | 60.6% | 45.9% | 9.4% | 93% | 89.2% | 83.5% | 75.6% | 68.9% | 56.5% | 3.9 pM | EC50 [4, 9]: 8.2 pM; EC50 [4, 10]: 6.1 pM; EC50 [5, 11]: ≥ 26 nM; EC50 [5, 12]: ≥ 26 nM; EC50 [6, 13]: ≥ 26 nM; EC50 [6, 14]: ≥ 26 nM; EC50 [7, 15]: 800 pM; EC50 [7, 16]: 729 pM; EC50 [7, 17]: 871 pM |
